In PubChem BioAssay AID1996:
≈ marks a conversion by molar mass, not a printed value.

settings: buffer; pH 7.4; 200.0 µM

First: O=C(C[n+]1ccccc1)N1CCCc2ccccc21.[Cl-]
Second: O=C(CNCc1ccc(Cl)cc1)N1CCc2ccccc2C1
The solubility kinetic of the first is higher: greater than 43.3 µg/mL for the first, 36.8 µg/mL (≈ 117 µM) for the second.

Going from `Cc1cc(Nc2cccc(Cl)c2)nc(-c2ccccc2O)n1` to `COc1ccc(Nc2nc3ccccc3c(=O)[nH]2)cc1`, the solubility kinetic rises from 0.6 µg/mL (≈ 1.92 µM) to 24.4 µg/mL (≈ 91.3 µM) (41-fold).

`O=C(CN1C(=O)c2cccc3cccc(c23)C1=O)NCCCO` and `O=C(O)CCN1c2cccc3cccc(c23)S1(=O)=O` cannot be ordered by solubility kinetic: greater than 46.8 µg/mL for the first, greater than 41.6 µg/mL for the second.

Compared with `N#Cc1c(-c2ccc(Cl)cc2)ccnc1N1CCOCC1`, `N#Cc1ccccc1OCC(=O)Nc1ccc2c(c1)OCCO2` is 6.6-fold higher in solubility kinetic: 3 µg/mL (≈ 10 µM) for the first, 19.7 µg/mL (≈ 63.5 µM) for the second.

Compared with `Cc1ccc(NC(=O)Nc2ccc(Cl)c(Cl)c2)nc1`, `Cc1cccc(NC(=O)C(C)Oc2ccc(C)nc2[N+](=O)[O-])c1` (centres undefined) is higher in solubility kinetic: less than 0.2 µg/mL for the first, greater than 47.3 µg/mL for the second.

First: CN(CCC#N)C(=O)CC(Cc1ccccc1)C1CCOC(C)(C)C1 (centres undefined)
Second: CC(C)N(Cc1ccccc1)C(=S)NC1CCCCC1
The solubility kinetic of the first is higher: greater than 51.4 µg/mL for the first, 13.1 µg/mL (≈ 45.1 µM) for the second.

`COc1cc(C(=O)NCCCc2ccccc2)cc(OC)c1OC` and `COC(=O)CCCNC(=O)c1ccccn1` cannot be ordered by solubility kinetic: greater than 49.4 µg/mL for the first, greater than 33.3 µg/mL for the second.

Going from `COC(=O)N1CCN(c2ccc(C)cc2)C(C)C1` (centres undefined) to `Cc1ccc(C(=O)CNc2ccc(C)cc2C)cc1`, the solubility kinetic falls from greater than 37.2 µg/mL to 2.8 µg/mL (≈ 11.1 µM).

Going from `CCN1CCN(c2nc3c(c(=O)[nH]2)CCC3)CC1` to `Cc1cccn2c(=O)c(C=O)c(N3CCN(C)CC3)nc12`, the solubility kinetic rises from 36.1 µg/mL (≈ 145 µM) to greater than 42.9 µg/mL.

Going from `CCCCn1c(NC(=O)c2ccco2)c(S(=O)(=O)c2ccc(C)cc2)c2nc3ccccc3nc21` to `CCOc1ccccc1NS(=O)(=O)c1ccc2[nH]c(=O)ccc2c1`, the solubility kinetic rises from 20.2 µg/mL (≈ 41.3 µM) to 48.3 µg/mL (≈ 140 µM) (2.4-fold).

`O=C(O)c1ccccc1-c1ccccc1C(=O)Nc1ccc(F)cc1` and `Cc1cc(C(=O)Nc2ccc(C(=O)O)cc2)c(C)o1` cannot be ordered by solubility kinetic: greater than 50.3 µg/mL for the first, greater than 38.9 µg/mL for the second.

`COc1ccc(-n2cnc3ccccc3c2=O)c([N+](=O)[O-])c1` and `O=C(O)c1ccc(/C=C/c2nc3ccccc3c(=O)[nH]2)cc1` cannot be ordered by solubility kinetic: greater than 44.6 µg/mL for the first, greater than 43.8 µg/mL for the second.

`CC(C)Oc1ccc(C(=O)OC(C)C(=O)NC2CCCCC2C)cc1` (centres undefined) and `COC(=O)c1ccccc1NC(=O)c1ccc2c(c1)OCCCO2` are within 1.5-fold of each other in solubility kinetic: 4.4 µg/mL (≈ 12.7 µM) for the first, 4.1 µg/mL (≈ 12.5 µM) for the second.

`CN(C(=O)COC(=O)c1cc[n+]([O-])cc1)c1ccccc1` and `CCN(C(=O)CCCCC(=O)N(CC)c1ccccc1)c1ccccc1` cannot be ordered by solubility kinetic: greater than 42.9 µg/mL for the first, greater than 52.9 µg/mL for the second.

First: O=C(COC(=O)c1ccc(Cl)nc1)Nc1ccc2c(c1)OCCO2
Second: CC(C)(C)NC(=O)COC(=O)c1c2c(nc3ccccc13)CCC2
The solubility kinetic of the first is 7.5-fold lower: 4.8 µg/mL (≈ 13.8 µM) for the first, 35.8 µg/mL (≈ 110 µM) for the second.

First: CC(=O)N1Cc2ccccc2CC1C(=O)NCc1ccccc1F (centres undefined)
Second: O=C1CSC(c2ccccc2F)N1c1ccccc1F (centres undefined)
The solubility kinetic of the first is higher: greater than 49 µg/mL for the first, 3.2 µg/mL (≈ 11 µM) for the second.

Going from `Cc1cc(C)c(C(=O)N(C)C2CCCN(Cc3ccccc3F)C2)o1` (centres undefined) to `NC(=O)c1c(NC(=O)c2ccccc2F)sc2c1CCCC2`, the solubility kinetic falls from greater than 51.7 µg/mL to 3 µg/mL (≈ 9.42 µM).

Going from `O=C(Cc1ccc([N+](=O)[O-])cc1)NC(C(=O)[O-])C(O)c1cccc([N+](=O)[O-])c1.[Na+]` (centres undefined) to `CSc1ncccc1C(=O)OCc1ccc([N+](=O)[O-])cc1`, the solubility kinetic falls from greater than 61.7 µg/mL to 0.9 µg/mL (≈ 2.96 µM).

Going from `CCOc1ccc2[nH]c3c(c2c1)CNCC3` to `O=C1CCCN1C(=O)COc1cc(F)ccc1[N+](=O)[O-]`, the solubility kinetic rises from 25.9 µg/mL (≈ 120 µM) to greater than 42.3 µg/mL.

Compared with `Cc1ccsc1C1C(C#N)=C(N)OC2=C1C(=O)CC(C)(C)C2` (centres undefined), `Cc1cc(C(=O)Cn2cnc3cc(F)ccc3c2=O)c(C)n1C1CC1` is lower in solubility kinetic: greater than 47.2 µg/mL for the first, 0.9 µg/mL (≈ 2.65 µM) for the second.

`Nc1nnc(SCc2ccccc2F)s1` and `CC(C)CN1C(=O)C(=Nc2cccnc2)c2ccccc21` cannot be ordered by solubility kinetic: greater than 36.2 µg/mL for the first, greater than 41.9 µg/mL for the second.

`O=C(NCC(=O)N1CCCC(C(F)(F)F)C1)c1ccco1` (centres undefined) and `COc1ccc(N(CC(=O)N2CCOCC2)S(C)(=O)=O)cc1OC` cannot be ordered by solubility kinetic: greater than 45.6 µg/mL for the first, greater than 53.8 µg/mL for the second.

`CN(C)NC(=S)NC1(C)CCS(=O)(=O)C1` (centres undefined) and `CCOC(=O)c1csc(NC(=O)CN2CCN(C)CC2)n1` cannot be ordered by solubility kinetic: greater than 37.7 µg/mL for the first, greater than 46.9 µg/mL for the second.

`CN(C)CCNC(=O)Cc1ncc(C(F)(F)F)cc1Cl` and `CCOP(=O)(OCC)C(NC(=O)CC(C)C)C(Cl)(Cl)Cl` (centres undefined) cannot be ordered by solubility kinetic: greater than 46.5 µg/mL for the first, greater than 55.3 µg/mL for the second.

Going from `Nc1c([N+](=O)[O-])cc(-c2cnc[nH]2)cc1[N+](=O)[O-]` to `Nc1cc(N2CCCC2)ccc1[N+](=O)[O-]`, the solubility kinetic rises from less than 0.1 µg/mL to 2.8 µg/mL (≈ 13.5 µM).

Compared with `O=c1c2[nH]cnc2n(-c2ccccc2)c(=O)n1Cc1ccccc1`, `CCN(Cc1cc(=O)oc2cc(C)ccc12)c1ccccc1` is 18-fold lower in solubility kinetic: 35.1 µg/mL (≈ 110 µM) for the first, 2 µg/mL (≈ 6.82 µM) for the second.

First: Cc1ccc(NC(=S)N(N)CCO)cc1
Second: COc1ccc(NC(=S)Nc2ccccn2)cc1
The solubility kinetic of the first is higher: greater than 33.8 µg/mL for the first, 2.8 µg/mL (≈ 10.8 µM) for the second.

First: C=CCn1cc(C=C2C(=O)N(C)C(=O)N(C)C2=O)c2ccccc21
Second: CN(C)c1cccc2c(S(=O)(=O)N3CCCC3)cccc12
The solubility kinetic of the first is 42-fold lower: 0.8 µg/mL (≈ 2.47 µM) for the first, 34 µg/mL (≈ 112 µM) for the second.

First: Cc1cc(Br)ccc1N=C1C(=O)Nc2ccccc21
Second: Cc1cc(C)cc(NS(=O)(=O)c2ccc3[nH]c(=O)ccc3c2)c1
The solubility kinetic of the first is 5.3-fold higher: 8 µg/mL (≈ 25.4 µM) for the first, 1.5 µg/mL (≈ 4.57 µM) for the second.

With `Cn1cnc([N+](=O)[O-])c1SCCO` the solubility kinetic was greater than 30.5 µg/mL.
